Entries after “also recorded” stand apart in the source; their conditions may differ. Like-named read-outs stand apart in the source and are kept apart here.
Columns and labels:
hERG potassium channel = biological target: T1, hERG potassium channel (Homo sapiens, UniProt Q12809); test: hERG channel test (Qpatch / Qube); type: cell-based; details: CHO cells stably expressing hERG potassium channels, Qpatch hERG (Fig. S15)
T1 construct: host or cells: Chinese hamster ovary cells
Protocol: (§1) Two concentrations (1 and 30 μM, two replicates each) were tested at room temperature.

hERG [1] = biological target: T2, hERG (Homo sapiens, UniProt Q12809); test: In vitro pharmacology panel (Eurofins); design: purchased Eurofins (Cerep/DiscoverX SafetyScreen44 in vitro pharmacology panel); details: human hERG potassium channel, [3H]dofetilide binding assay, probe [3H] Dofetilide, read-out: activity (% of DMSO control)
T2 sequence (Q12809 whole entry): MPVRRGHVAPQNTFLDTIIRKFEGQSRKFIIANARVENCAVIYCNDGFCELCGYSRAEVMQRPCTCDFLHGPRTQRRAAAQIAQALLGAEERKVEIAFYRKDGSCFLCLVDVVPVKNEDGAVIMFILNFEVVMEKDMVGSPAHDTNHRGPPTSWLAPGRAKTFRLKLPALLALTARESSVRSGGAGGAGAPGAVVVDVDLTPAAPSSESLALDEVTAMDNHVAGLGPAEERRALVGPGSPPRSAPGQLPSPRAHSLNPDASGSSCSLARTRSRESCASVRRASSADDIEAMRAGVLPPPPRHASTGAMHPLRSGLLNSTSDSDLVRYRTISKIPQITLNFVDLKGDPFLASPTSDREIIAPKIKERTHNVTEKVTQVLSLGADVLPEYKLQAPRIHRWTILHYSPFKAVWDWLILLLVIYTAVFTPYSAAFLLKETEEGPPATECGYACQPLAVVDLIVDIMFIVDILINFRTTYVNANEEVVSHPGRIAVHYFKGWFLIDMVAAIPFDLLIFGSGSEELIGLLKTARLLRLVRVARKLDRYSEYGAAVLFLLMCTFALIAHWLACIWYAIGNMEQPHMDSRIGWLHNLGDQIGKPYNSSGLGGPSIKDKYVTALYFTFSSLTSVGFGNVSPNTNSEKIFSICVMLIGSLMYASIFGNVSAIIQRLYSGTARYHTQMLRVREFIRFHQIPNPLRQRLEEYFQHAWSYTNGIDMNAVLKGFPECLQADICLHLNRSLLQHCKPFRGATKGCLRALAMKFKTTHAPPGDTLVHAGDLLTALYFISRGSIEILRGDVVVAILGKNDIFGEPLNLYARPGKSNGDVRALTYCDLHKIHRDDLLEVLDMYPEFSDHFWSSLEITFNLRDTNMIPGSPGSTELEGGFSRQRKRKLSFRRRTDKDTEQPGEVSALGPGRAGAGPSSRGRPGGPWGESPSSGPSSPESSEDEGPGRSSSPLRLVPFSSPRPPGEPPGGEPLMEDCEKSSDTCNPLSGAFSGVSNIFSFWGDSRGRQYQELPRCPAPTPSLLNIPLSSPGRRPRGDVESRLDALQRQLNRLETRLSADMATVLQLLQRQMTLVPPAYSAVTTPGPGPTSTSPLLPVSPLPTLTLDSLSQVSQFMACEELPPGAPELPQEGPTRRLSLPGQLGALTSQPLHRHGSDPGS
Source text: Listed values represent the percent change relative to the DMSO control activity. When an IC50 had to be determined, eight different concentrations were included. All values are the mean of assay readout duplicates.

[2] = tested on: L. donovani axenic amastigotes; test: Drug sensitivity assay, axenic amastigotes; type: cell-based; details: Leishmania donovani
Protocol: The clonal L. donovani cell line LdBOB (derived from MHOM/SD/62/1S-CL2D) was grown as promastigotes at 28°C and as axenic amastigotes at 37°C, as described previously ([25]).
To examine the effects of test compounds on growth in 96-well plates, promastigote or axenic amastigote cultures seeded at 5 × 10^4 parasites mL^–1 were incubated in the presence of 2-fold serial dilutions of test compounds for 72 h. Following incubation, 50 μM resazurin was added to each well and fluorescence (excitation of 528 nm and emission of 590 nm) measured after a further 3 h incubation.

[3] = biological target: complex III of L. donovani (Leishmania donovani, UniProt A5HU08); test: Complex III assay in mitochondria-enriched cell lysates
complex III of L. donovani, sequence (A5HU08 1-290): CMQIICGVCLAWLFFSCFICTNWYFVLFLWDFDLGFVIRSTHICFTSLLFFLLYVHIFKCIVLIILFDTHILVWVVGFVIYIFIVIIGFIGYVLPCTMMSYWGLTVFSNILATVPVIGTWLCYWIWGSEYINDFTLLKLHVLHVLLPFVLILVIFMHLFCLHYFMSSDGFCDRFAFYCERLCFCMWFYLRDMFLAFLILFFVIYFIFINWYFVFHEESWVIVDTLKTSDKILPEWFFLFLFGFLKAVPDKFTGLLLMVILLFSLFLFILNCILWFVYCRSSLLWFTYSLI
complex III of L. donovani, sequence (A0A3S7WPP0 1-258 partner): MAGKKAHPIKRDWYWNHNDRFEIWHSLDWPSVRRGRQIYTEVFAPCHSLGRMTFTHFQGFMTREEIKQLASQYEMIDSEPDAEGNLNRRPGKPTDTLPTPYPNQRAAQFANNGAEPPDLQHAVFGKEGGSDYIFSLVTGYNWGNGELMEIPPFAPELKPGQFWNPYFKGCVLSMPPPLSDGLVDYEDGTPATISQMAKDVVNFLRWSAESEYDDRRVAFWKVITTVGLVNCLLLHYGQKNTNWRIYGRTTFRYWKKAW
Protocol: Measurement of complex III activity and inhibition were performed as described previously ([6]).

L. infantum = test: PK/PD analysis of liver burden versus cumulative unbound AUC; type: in vivo, hamsters; details: Hamster – L. infantum; estimated using the fitted parameters
Source text: To determine the correlation between the pharmacokinetic (PK) and pharmacodynamic (PD) data, repeat dose profiles in mice and hamsters following single and twice daily dosing were simulated using the fitted parameters.
Other parameters were less well correlated to efficacy, presumably given that none reflect the cumulative exposure profile with an extended treatment regimen. […] Results for mice infected with L. donovani were similar to those for L. infantum (Table S15).

[4] = tested on: L. donovani MHOM/ET/67/L82 (synonym HU3); test: Acute mouse infection model (VL); type: in vivo, BALB/c mice; details: 12.5 mg/kg bid or higher, 5-day dosing
Protocol: (§2) Female 8−10-week-old BALB/c mice were infected with 2 x 10^7 L. donovani MHOM/ET/67/L82 (synonym HU3) or L. infantum MHOM/MA67/ITMAP263 amastigotes on day 0 and dispatched in groups of five individuals. […] Five days following end of treatment, all mice were sacrificed, and parasite burden was determined from smears of liver sections. Efficacy was expressed as the mean percentage load reduction compared to untreated (vehicle-only) control animals. Reference drugs miltefosine and/or AmBisome were used as positive controls and comparators.

[5] = tested on: L. infantum MHOM/MA67/ITMAP263; test: Acute mouse infection model (VL); type: in vivo, BALB/c mice; details: for decrease in the liver parasite burden compared to control animals: 5 consecutive days
Protocol: as §2

CYP2C9 = biological target: T3, CYP2C9 (Homo sapiens, UniProt P11712); test: Cytochrome P450 inhibition, human liver microsomes; type: in vitro ADME
T3 construct: incubation of isoform-specific substrates with human liver microsomes; from tissue; host or cells: human liver microsomes
T3 sequence (P11712 whole entry, canonical isoform): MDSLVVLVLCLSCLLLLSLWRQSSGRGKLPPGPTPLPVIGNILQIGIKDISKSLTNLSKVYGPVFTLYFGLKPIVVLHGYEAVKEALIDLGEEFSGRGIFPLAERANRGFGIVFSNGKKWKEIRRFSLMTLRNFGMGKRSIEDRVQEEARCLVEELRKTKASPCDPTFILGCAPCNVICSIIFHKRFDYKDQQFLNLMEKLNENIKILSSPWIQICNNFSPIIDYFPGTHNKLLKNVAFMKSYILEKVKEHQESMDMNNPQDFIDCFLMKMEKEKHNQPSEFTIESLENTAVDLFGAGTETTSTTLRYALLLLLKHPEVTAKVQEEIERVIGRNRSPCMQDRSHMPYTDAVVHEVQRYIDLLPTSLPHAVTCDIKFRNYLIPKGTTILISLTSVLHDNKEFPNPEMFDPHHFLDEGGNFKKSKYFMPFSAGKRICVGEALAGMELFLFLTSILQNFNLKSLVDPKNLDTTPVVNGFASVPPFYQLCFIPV
Source text: The formation of known metabolites mediated by a specific CYP isoform was monitored. CYP isoform-specific pathways (and positive control inhibitors) included CYP1A2: phenacetin O-deethylation (furafylline), CYP2B6: bupropion hydroxylation (PPP), CYP2C8: amodiaquine deethylation (quercetin) CYP2C9: tolbutamide methylhydroxylation (sulfaphenazole), CYP2C19: (S)-mephenytoin 4’-hydroxylation (ticlopidine), CYP2D6: dextromethorphan O-demethylation (quinidine), and CYP3A: midazolam 1’-hydroxylation and testosterone 6β-hydroxylation (ketoconazole). […] The organic solvent content was maintained at less than 1% (v/v). NADPH was added to initiate the reaction which was then quenched by the addition of acetonitrile containing internal standard at specified times. Concentrations of the isoform-specific metabolites were quantified by LC-MS (Waters Xevo TQD triple quadrupole MS coupled to a Waters Acquity UPLC system) relative to calibration standards prepared in pre-quenched microsomal matrix.
Time dependent inhibition was assessed using an “IC50 shift” method based on a previous publication ([44]). […] A shift in the IC50 in the presence of NADPH (relative to the absence) was used as an indication of time dependent inhibition. Reference direct and time-dependent inhibitors were included in the assays.

hERG [6] = biological target: T2, hERG; test: hERG channel test (Qpatch / Qube); type: cell-based; design: host or cells: Chinese hamster ovary cells; details: Qpatch hERG
Protocol: as §1

[7] = Seahorse mitochondrial stress test; type: cell-based; details: human, HepG2 cells; read-out: OCR Basal AC50
Protocol: (§3) Seahorse® 96 well plates were seeded with HepG2 cells and incubated overnight (37°C, 5% CO2). The media in all plate wells was then replaced with Seahorse® assay media and the plates were incubated (37°C, CO2 free) for a further 1 hour before placing in the Seahorse® XFe96 analyser (Agilent Technologies Inc, USA). […] OCR and ECAR were measured for 45 minutes before the sequential addition of oligomycin (ATP synthase inhibitor), FCCP (carbonyl cyanide 4-(trifluoromethoxy) phenylhydrazone, protonophore uncoupler) and rotenone plus antimycin A (Electron transport chain Complex I and III inhibitors respectively). Multiple measurements of OCR and ECAR were made following each of these additions.
(§4) Mean ± standard deviation of the compound ratio data were plotted vs log concentration and curves fitted (as described in [24]) and the minimum effective concentration (MEC) determined using limits based on the DMSO vehicle mean ± 2 standard deviations or, where these limits were deemed too narrow, the DMSO vehicle mean ± minimum limits set for each parameter. The AC50 was calculated using the curve and historical maximum (activation) and minimum (inhibition) responses and is defined as the concentration at which 50% of the maximum or minimum effect is observed, provided a clear concentration response relationship is seen.

HepG2 cells = test: Seahorse mitochondrial stress test; type: cell-based
Protocol: as §3, §4

[8] = In vitro metabolism, cryopreserved hepatocytes; type: in vitro ADME, human
Protocol: Cell viability was determined using trypan blue exclusion. The incubation was performed on a plate shaker (Heidolph Titrimax 100, 900 rpm) placed in a humidified incubator (37°C, 7.5% CO2) for 240 min. The reaction was initiated with the addition of compound with samples taken periodically and quenched with the addition of acetonitrile containing internal standards (metolazone and diazepam). Quenched samples were maintained on ice for approximately 20-30 min, centrifuged (for 5 min) and the supernatant analyzed by LC-MS.
In vitro intrinsic clearance (CLint, μL/min/mg or μL/min/10^6 cells) values were calculated from the apparent first order degradation rate constant divided by the microsome concentration or the hepatocyte cell number (10^6 viable cells/mL). In vitro CLint values were then divided by the fraction unbound in the in vitro test system (to give CLint,u) and scaled to in vivo values (mL/min/kg) using published physiological scaling factors ([28]). Blood clearance in each species was then calculated using the well-stirred model of hepatic extraction (equation 2) where Q is the hepatic blood flow and fu,blood is calculated from fu,plasma/B:P: [2] PredictedCLblood=Q x fu,blood x CLint,u/Q+fu,blood x CLint,u
Blood clearance values were converted to plasma clearance by multiplying by the B:P.

T1 sequence (Q12809 whole entry): as the sequence (Q12809 whole entry) above

Cc1[nH]c2nc(N)nc(C)c2c1-c1ccc(C#N)c2c1OCO2 [DNDI-6174]
IC50 (hERG potassium channel): 31.6 µM
activity at 10 µM (hERG [1]): 94.2%
EC50 [2]: 0.075 ± 0.002 µM
IC50 ([3]; lysates from axenic amastigote stage): 0.002 ± 0.0005 µM
IC50 ([3]; lysates from promastigote stage): 0.008 ± 0.0017 µM
unbound ED95 (L. infantum): 3.6
reduction in liver parasite burden [4]: > 95%
reduction in liver parasite burden ([5]; 12.5 mg/kg bid or higher, 5-day dosing): > 95%
decrease in the liver parasite burden compared to control animals ([5]; 12.5 mg/kg bid): > 98%
decrease in the liver parasite burden compared to control animals ([5]; 25 mg/kg qd): > 98%
IC50 (CYP2C9; CYP2C9, read-out: Direct inhibition IC50): 14.9 µM
IC50 (CYP2C9; without NADPH preincubation, read-out: Time-dependent inhibition IC50): 13.8 µM
inhibition at 1 µM (hERG [6]; 1 μM): 3.81%
inhibition at 10 µM (hERG [6]; 10 μM): 48%
AC50 at 45 min [7]: > 200 µM
OCR Basal minimum effect concentration (MEC) (HepG2 cells): 95.6 µM
Reserve Capacity, ECAR, Maximum Capacity, ATP production, in words (HepG2 cells): No significant response observed on reserve; also recorded: no changes in Reserve Capacity, ECAR, Maximum Capacity or ATP production
margin of Seahorse OCR MEC over free concentration at predicted human therapeutic plasma Cmax (HepG2 cells): approximately 187 fold
ECAR, in words (HepG2 cells; 200 μM): transient increase
OCR Basal maximum reduction (HepG2 cells; 200 μM): 14%
Hepatocyte predicted in vivo CLplasma ([8]; Human): 0.31 mL/min/kg
hepatocyte CLint at 0.5 µM ([8]; human, cryopreserved hepatocytes): 1.1 ± 0.27 µL/min/1e6 cells
